# Results reported in the NIST ThermoML archive (doi:10.1021/je100028s).
# Numbers after ± are expanded uncertainties.
# Details: Liquid; for mass density: 293.1 K, 101.33 kPa, Pycnometric method; for vapor or sublimation pressure: Closed cell (Static) method
mass density [kg/m3],vapor or sublimation pressure (414 K) [kPa],vapor or sublimation pressure (423.4 K) [kPa],vapor or sublimation pressure (433.7 K) [kPa],Compound
941.4 ± 0.9,,,,OC1CCCCC1 [cyclohexanol]
778.2 ± 0.7,457.67 ± 21,555.25 ± 21,677.81 ± 21,C1CCCCC1 [cyclohexane]
947.6 ± 0.9,,,,O=C1CCCCC1 [cyclohexanone]
